Usually melting point stands for the temperature of the solid-liquid transition.

This note sets out measurements from a melting point compilation (Tetko et al.; mined from patent text by program, amines drawn as free bases though some values may be those of a salt).

Molecules are shown by their SMILES.

`CCCN(CCC)S(=O)(=O)c1cc(-c2csc(=Nc3ccccc3C)n2C)ccc1Cl` had a melting point of 114 to 116 °C.
The compound `O=C(CC1CCCCC1)N(O)Cc1ccccc1` registered a melting point of 83 to 85 °C.
`CSc1nn2c(N)cc(C)nc2c1S(=O)(=O)c1cccs1`: the melting point is greater than 230 °C.
In the case of `CC(=O)NCC1CN(c2ccc(-n3cnc(Cn4cccn4)c3)c(F)c2)C(=O)O1` (stereo not given) it was 158 to 160 °C.
In the case of `CCOC(=O)c1sc(N)nc1-c1ccc(Cl)cc1` it was 198 to 200 °C; in that of `COc1cc(CC(=O)Nc2cnn(Cc3c(C)noc3C)c2)cc(OC)c1O`, 187 to 188 °C.
The value for `Cc1cc(N)c(Br)c(C)c1C` was 69 °C; that for `CC12CCC3c4ccc(O)cc4CCC3(C=C(F)F)C1CCC2O` (stereo not given) was 154 to 156 °C; that for `COc1ccc2c(c1)CC(N(CC(=O)O)C(=O)C(C)CSC(C)=O)CC2` (stereo not given) was 147 to 150 °C.
`CC(C(=O)c1ccc(F)cc1F)n1cnc(-c2ccc(OCc3ccccc3)cc2)n1` (stereo not given): the melting point fell in the range of 80 to 97 °C.
On to `CN(CCc1ccccn1)C(=O)CCSc1cc(C(C)(C)C)c(O)c(C(C)(C)C)c1`, for which the melting point is 82 to 84 °C.
The compound `O=C(O)Cc1ccc(CCNC(=O)c2ccccc2)cc1` displayed a melting point of 157 to 158 °C.
Compound `CCOC(=O)c1c(CSc2ccccc2)n(C)c2cc(Br)c(O)cc12` displayed a melting point of 196 to 197 °C.
With `CC(C)(C)OC(=O)COC1CCN(C(=O)[C@H](Cc2ccc(OC(C)(C)C)cc2)NC(=O)c2ccc(C#N)cn2)CC1`, the melting point was 122 to 123 °C.
In the case of `COc1ccc(C(=O)NCCCCCCCNC(=O)c2ccc(OC)c(OC)c2)cc1OC` it was 160 to 161 °C; in that of `CO/N=C1\CCCC[C@@H]1NC(=O)c1ncc(O[C@@H](C)C(F)(F)F)c(-c2ccc(Cl)cc2)n1`, 180 to 182 °C; in that of `Nc1ccc(NCCO)c(S(=O)(=O)CCO)c1`, 130 °C.
The value for `CCn1cc([C@]2(c3cccc(-c4cccnc4F)c3)N=C(N)N(C)C2=O)cc1C(C)=O` was 109 to 111 °C.
The value for `Cc1ncnn1-c1ccc([N+](=O)[O-])cc1F` was 56 to 58 °C; that for `CC(C)(CCCOc1cccc(C(F)(F)F)c1)C(=O)O` was 96 to 97 °C.
Compound `CC#CCOc1ccc(S(=O)(=O)N[C@@H](C(=O)NO)C2CCC(O)CC2)cc1` (stereo not given in full) yielded a melting point of 180 to 182 °C.
The value for `Cc1nc2c(N)nc3ccccc3c2n1CC1(O)CCC1` was greater than 250 °C.
The value for `COc1ccc(-c2nc(C(C)=O)oc2-c2ccc(OC)cc2)cc1` was 139 to 140 °C; that for `CCc1cc(-c2[nH]c3ccc(OC)cc3c2C)cc(CC)c1O` was 122 to 124 °C.
The value for `CSC(=S)C1(c2cccc(C)n2)CCCS1` (stereo not given) was 80 °C.
For the compound `O=C(O)c1ccc2c(c1)Sc1ccc(F)cc1C(O)C2` (stereo not given), the melting point is 204 to 210 °C.
The value for `COc1ccc(-c2cc(-c3ccccc3)nc(C)c2C(=O)O)cc1OC` was 208 °C; that for `O=Cc1sccc1Sc1ccccc1` was 99 to 100 °C.
In the case of `CCN1CCCC1CNC(=O)c1c(Br)c(Br)c([N+](=O)[O-])c2c1OCCO2` (stereo not given) it was 213 °C; in that of `O=C1C(=Cc2sccc2Oc2ccccc2)CCc2cc(OCCn3ccnc3)ccc21`, 135 to 137 °C; in that of `CCCCCCCCCCc1csc2c1sc1c3scc(CCCCCCCCCC)c3sc21`, 111 to 113 °C.
Compound `O=C(O)[C@H](Cc1ccccc1)NS(=O)(=O)c1ccccc1` displayed a melting point of 150 to 152 °C.
The value for `O=C(N[C@H]1CC[C@H](CCN2CCN(c3nccc4c3OCC4)CC2)CC1)c1ccc(Cl)cc1` was 252 °C; that for `CCCCSN(C)C(=O)Nc1ccc(Cl)c(Cl)c1` was 47 °C; that for `Cc1cc(C)cc(Oc2c(CCCc3ccccc3)c(C)[nH]c(=O)c2I)c1` was 220 °C.
In the case of `COC(=O)c1ccc(NC(C)=O)c2c1OCCC2` it was 175 °C.
The value for `COc1cc(-c2cccc(Cl)c2)c2cc(C(O)c3cncn3C)ccc2n1` (stereo not given) was 205 °C; that for `O=C1c2c(Cl)cccc2-n2c1nc1ccccc1c2=O` was 294 to 296 °C; that for `Cc1ccc(-c2ccccc2-c2n[nH]c(=O)n2C)cc1` was 181 to 182 °C.
In turn, `CCN(CCCN1c2ccccc2N(C)C(=O)c2ccc(C)nc21)C(C)C` yielded a melting point of 104 to 105 °C.
Turning to `CS(=O)(=O)c1ccc(-c2cc(CO[N+](=O)[O-])nn2C2CCCCCCC2)cc1`, the melting point fell in the range of 110 to 111 °C.
In the case of `Clc1ccc(-c2ncn(CCCN3CCOCC3)c2-c2ccncc2)cc1Cl` it was 106 °C.
The compound `CCSc1cc(C)nc(SCC)c1NC(=O)CN1CCN(CCSc2nc3ccc(COC)c(COC)c3o2)CC1` had a melting point of 118 to 120 °C.
In the case of `O=C(Nc1ccc(C(F)(F)F)cc1)c1cccc(Oc2cccc(C(F)(F)F)c2)n1` it was 130 to 132 °C.
The compound `CCC(=O)Nc1cc(-c2sc(C(C)O)nc2-c2cccc(C)c2)ccn1` (stereo not given) yielded a melting point of 115 to 116 °C.
As for `CCCc1nc2c(N)nc3cc(F)ccc3c2s1`, the melting point is 192 to 194 °C.
The value for `C=CCCn1cnc2c1c(=O)n(C)c(=O)n2C` was 110 °C; that for `CNCCCn1c(-c2ccc(Br)cc2)csc1=Nc1ccccc1` was 143 to 148 °C; that for `COCSc1ccc2c(c1)CC[C@@H]1[C@@H]2CC[C@]2(C)C(=O)CC[C@@H]12` was 55 °C.
The value for `COc1ccc(NC(=O)c2ccc(-c3ccc(C(=O)N4CCCC4)cc3C)cc2)cc1N1CCN(C)CC1` was 187 to 188 °C; that for `CCCc1nc2c(N)nc(C)c(C)c2n1CCCC(N)=O` was 226 to 228 °C; that for `COc1ccc(Nc2nc(-c3ccccc3)cc(N3CCC(O)CC3)n2)cc1Cl` was 220 to 240 °C.
In the case of `OCC1(c2ccccc2)COc2ccccc2O1` (stereo not given) it was 114 to 116 °C.
In turn, `NCCC1CCC(C(O)(P(=O)(O)O)P(=O)(O)O)CC1` (stereo not given) returned a melting point of 226 to 230 °C.
With `Fc1ccc(-c2cc(C(F)(F)F)n3ncc(-c4ccccn4)c3n2)cc1Cl`, the melting point is 197 °C.
`CC(C)CCCC(C)C1CCC2C3CC=C4CC(NCCCNC(=O)CCCCCNc5ccc([N+](=O)[O-])c6nonc56)CCC4(C)C3CCC12C` (stereo not given) yielded a melting point of 78 to 80 °C.
In the case of `Cc1cc(O)c(S(=O)Cc2ccc(Cl)c(Cl)c2)c(=O)o1` (stereo not given) it was 144 to 146 °C; in that of `Cc1cccc(C)c1OCC1CN=C(N)O1` (stereo not given), 114 °C.
The value for `CCOC(=O)c1c[nH]nc1-c1ccc(Cl)cc1` was 95 to 100 °C; that for `CCOC(=O)c1cnc(Nc2ccccc2OC(C)C)[nH]c1=O` was 205 to 207 °C; that for `CN1C=Nc2cc(Cl)c3cc4ccccc4cc3c2C1` was 236 °C.
In the case of `Cn1nc(C(F)(F)F)c(C(=O)Nc2cccc3c2CCC3(C)C)c1Cl` it was 120 °C; in that of `O=c1oc2ccccc2c2c1CN(CCN1CC3CCCC(C3)C1)CC2`, 129 to 130 °C; in that of `COC(=O)/C=C/n1cnc2c(OC)cccc2c1=O`, 203 to 208 °C.
For `N#Cc1ccc(-c2cc3c(O)ncnc3[nH]2)cc1`, the melting point is greater than 410 °C.
The value for `Cc1ccc(C(=O)Nc2ccc(N3CCN(C)CC3)c(C(F)(F)F)c2)cc1Nc1nccc(-c2cccnc2)n1` was 214 to 217 °C; that for `COc1ccc(-c2ccc(C(C)=O)cc2)cc1` was 156 °C.
In the case of `O=C1CSCc2cc(-c3ccccc3)ccc21` it was 87 to 89 °C.
Compound `COc1ccnc(C(C)Sc2nc3cc(OC(F)(F)C(F)F)ccc3[nH]2)c1` (stereo not given) displayed a melting point of 78 to 81 °C.
In the case of `Fc1ccc(C2OC3(CCN(Cc4ccccc4)CC3)N3CCCCC23)cc1` (stereo not given) it was 158 to 159 °C.
For the compound `N=C(NO)c1nn(-c2c(Cl)cc(C(F)(F)F)cc2Cl)c(C=NO)c1SC(F)(F)F`, the melting point lay in the range of 68 to 72 °C.
In the case of `CC1(N2Cc3c(N)cccc3C2=O)CCC(=O)NC1=O` (stereo not given) it was 289 to 292 °C; in that of `C[C@H](Cc1ccc(-c2cc(F)cc(F)c2)cc1)c1ccccc1`, 49.8 to 51.3 °C.
In the case of `Nc1nc2cc(N)c(OC(F)(F)F)cc2s1` it was 175 °C.
In the case of `Nc1nc2ccccc2c2c1ncn2Cc1ccccc1` it was 257 to 259 °C; in that of `CC(=O)Nc1cc(NS(=O)(=O)CCl)c(Cl)cc1F`, 210 °C.
In turn, `CCC(=O)Oc1ccc2c(c1)CCC(CN1CCC(O)(c3ccccc3)CC1)C2=O` (stereo not given) showed a melting point of 170 to 172 °C.
The value for `CCNc1cc(-c2c(-c3cccc(C)c3)nc3cccnn23)ccn1` was 151 to 153 °C; that for `CO/C(=C\C=C\c1cc2cc(Cl)c(Cl)cc2[nH]1)C(=O)NC1CC(C)(C)N(C)C(C)(C)C1` was 212 °C.
In the case of `c1ccc(-c2cc3ncnc(Nc4ccc(NCc5c[nH]c6ccccc56)cc4)c3s2)cc1` it was 259 to 261 °C; in that of `CC(C)(C)COc1c(-c2ccc(S(C)(=O)=O)cc2)cnn(-c2cccc(Cl)c2)c1=O`, 151 to 153 °C.
Regarding `Cc1oc(-c2ccccc2)nc1COc1cccc(C=O)c1`, the melting point was in the range of 67 to 68 °C.
The value for `CCC(C(=O)O)c1cccc(C(=O)c2cc3cc(C(=O)O)sc3s2)c1` (stereo not given) was 240 °C; that for `Cc1ncc2n1-c1ccc(Cl)cc1C(c1ccccc1F)N(O)C2` (stereo not given) was 246 to 248 °C; that for `CCCCc1ccc(OC)c(-c2csc(NC(=O)c3ccc(C(=O)N4CCC(N5CCC(NC(=O)CC)C5)CC4)cc3)n2)c1` (stereo not given) was 128 °C.
In the case of `Cc1noc(-c2ccc(F)cc2)c1-c1ccc(S(N)(=O)=O)cc1` it was 174 to 175 °C; in that of `COc1cc(C(C)C)c2c(c1)S(=O)(=O)N(COc1cc(C)oc(=O)c1Cl)C2=O`, 182 to 184 °C; in that of `CC(=O)N(C)c1cccc(S(=O)(=O)c2ccc(N)cc2)c1`, 178 to 180 °C.
In the case of `OC1CCCc2nc3cc(F)ccc3c(NCc3ccccc3C(F)(F)F)c21` (stereo not given) it was 149 to 153 °C; in that of `O=C(CCCC1CCCCCCCCCCC1)C1=C(O)CSC1=O`, 62 to 69 °C.
